Conditions: Liquid, Vibrating tube method

CCCC[n+]1cccc(C)c1.N#C[N-]C#N [1-butyl-3-methylpyridinium dicyanamide]
Conditions | mass density [kg/m3]
283.15 K, 100 kPa | 1058.8
283.15 K, 5000 kPa | 1060.66
283.15 K, 10000 kPa | 1062.55
283.15 K, 15000 kPa | 1064.33
283.15 K, 20000 kPa | 1066.19
283.15 K, 25000 kPa | 1067.75
288.15 K, 100 kPa | 1055.64
288.15 K, 5000 kPa | 1057.59
288.15 K, 10000 kPa | 1059.47
288.15 K, 15000 kPa | 1061.24
288.15 K, 20000 kPa | 1063.09
288.15 K, 25000 kPa | 1064.88
288.15 K, 30000 kPa | 1066.59
288.15 K, 35000 kPa | 1068.35
288.15 K, 40000 kPa | 1070.07
288.15 K, 45000 kPa | 1071.67
288.15 K, 50000 kPa | 1073.24
293.15 K, 100 kPa | 1052.56
293.15 K, 5000 kPa | 1054.46
293.15 K, 10000 kPa | 1056.37
293.15 K, 15000 kPa | 1058.23
293.15 K, 20000 kPa | 1060.01
293.15 K, 25000 kPa | 1061.8
293.15 K, 30000 kPa | 1063.56
293.15 K, 35000 kPa | 1065.35
293.15 K, 40000 kPa | 1066.96
293.15 K, 45000 kPa | 1068.69
293.15 K, 50000 kPa | 1070.15
293.15 K, 55000 kPa | 1072.13
293.15 K, 60000 kPa | 1073.41
293.15 K, 65000 kPa | 1074.96
298.15 K, 100 kPa | 1049.45
298.15 K, 5000 kPa | 1051.35
298.15 K, 10000 kPa | 1053.24
298.15 K, 15000 kPa | 1055.19
298.15 K, 20000 kPa | 1057.08
298.15 K, 25000 kPa | 1058.87
298.15 K, 30000 kPa | 1060.59
298.15 K, 35000 kPa | 1062.37
298.15 K, 40000 kPa | 1064.1
298.15 K, 45000 kPa | 1065.73
298.15 K, 50000 kPa | 1067.37
298.15 K, 55000 kPa | 1069.04
298.15 K, 60000 kPa | 1070.61
298.15 K, 65000 kPa | 1072.1
303.15 K, 100 kPa | 1046.36
303.15 K, 5000 kPa | 1048.3
303.15 K, 10000 kPa | 1050.18
303.15 K, 15000 kPa | 1052.05
303.15 K, 20000 kPa | 1053.94
303.15 K, 25000 kPa | 1055.82
303.15 K, 30000 kPa | 1057.57
303.15 K, 35000 kPa | 1059.35
303.15 K, 40000 kPa | 1061.07
303.15 K, 45000 kPa | 1062.75
303.15 K, 50000 kPa | 1064.4
303.15 K, 55000 kPa | 1066.19
303.15 K, 60000 kPa | 1067.59
303.15 K, 65000 kPa | 1069.21
308.15 K, 100 kPa | 1043.21
308.15 K, 5000 kPa | 1045.23
308.15 K, 10000 kPa | 1047.28
308.15 K, 15000 kPa | 1049.14
308.15 K, 20000 kPa | 1051.02
308.15 K, 25000 kPa | 1052.92
308.15 K, 30000 kPa | 1054.8
308.15 K, 35000 kPa | 1056.51
308.15 K, 40000 kPa | 1058.23
308.15 K, 45000 kPa | 1059.9
308.15 K, 50000 kPa | 1061.71
308.15 K, 55000 kPa | 1063.27
308.15 K, 60000 kPa | 1064.76
308.15 K, 65000 kPa | 1066.44
313.15 K, 100 kPa | 1040.26
313.15 K, 5000 kPa | 1042.22
313.15 K, 10000 kPa | 1044.29
313.15 K, 15000 kPa | 1046.25
313.15 K, 20000 kPa | 1048.15
313.15 K, 25000 kPa | 1050.05
313.15 K, 30000 kPa | 1051.8
313.15 K, 35000 kPa | 1053.63
313.15 K, 40000 kPa | 1055.42
313.15 K, 45000 kPa | 1057.11
313.15 K, 50000 kPa | 1058.82
313.15 K, 55000 kPa | 1060.43
313.15 K, 60000 kPa | 1062.05
313.15 K, 65000 kPa | 1063.59
318.15 K, 100 kPa | 1037.22
318.15 K, 5000 kPa | 1039.29
318.15 K, 10000 kPa | 1041.17
318.15 K, 15000 kPa | 1043.3
318.15 K, 20000 kPa | 1045.08
318.15 K, 25000 kPa | 1046.98
318.15 K, 30000 kPa | 1048.91
318.15 K, 35000 kPa | 1050.75
318.15 K, 40000 kPa | 1052.38
318.15 K, 45000 kPa | 1054.09
318.15 K, 50000 kPa | 1055.97
318.15 K, 55000 kPa | 1057.54
318.15 K, 60000 kPa | 1059.3
318.15 K, 65000 kPa | 1060.96
323.15 K, 100 kPa | 1034.21
323.15 K, 5000 kPa | 1036.41
323.15 K, 10000 kPa | 1038.36
323.15 K, 15000 kPa | 1040.45
323.15 K, 20000 kPa | 1042.21
323.15 K, 25000 kPa | 1044.3
323.15 K, 30000 kPa | 1046.05
323.15 K, 35000 kPa | 1047.94
323.15 K, 40000 kPa | 1049.73
323.15 K, 45000 kPa | 1051.45
323.15 K, 50000 kPa | 1053.22
323.15 K, 55000 kPa | 1054.85
323.15 K, 60000 kPa | 1056.49
323.15 K, 65000 kPa | 1058.03
328.15 K, 100 kPa | 1031.21
328.15 K, 5000 kPa | 1033.17
328.15 K, 10000 kPa | 1035.31
328.15 K, 15000 kPa | 1037.3
328.15 K, 20000 kPa | 1039.35
328.15 K, 25000 kPa | 1041.31
328.15 K, 30000 kPa | 1042.96
328.15 K, 35000 kPa | 1044.93
328.15 K, 40000 kPa | 1046.72
328.15 K, 45000 kPa | 1048.66
328.15 K, 50000 kPa | 1050.54
328.15 K, 55000 kPa | 1052.18
328.15 K, 60000 kPa | 1053.85
328.15 K, 65000 kPa | 1055.47
333.15 K, 100 kPa | 1027.63
333.15 K, 5000 kPa | 1030.21
333.15 K, 10000 kPa | 1032.34
333.15 K, 15000 kPa | 1034.45
333.15 K, 20000 kPa | 1036.45
333.15 K, 25000 kPa | 1038.36
333.15 K, 30000 kPa | 1040.39
333.15 K, 35000 kPa | 1042.19
333.15 K, 40000 kPa | 1044.05
333.15 K, 45000 kPa | 1045.58
333.15 K, 50000 kPa | 1047.67
333.15 K, 55000 kPa | 1049.26
333.15 K, 60000 kPa | 1051.06
333.15 K, 65000 kPa | 1052.61

Source: the NIST ThermoML archive (doi:10.1016/j.fluid.2011.12.029)
